From patent publication US8952024B2, “Herbicidal pyrimidone derivatives” (E I du Pont de Nemours and Company, priority 2009, dated 2015)

Experiments:
Assay in all cases: Test B pre-/postemergence plant response
Type in all cases: in vivo
[1] = test system: ragweed (common ragweed, Ambrosia elatior)
Summary of the method: (§1)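 Seeds sown in loam–sand blend were treated preemergence, and plants at 2–18 cm (1- to 4-leaf stage) in peat-based medium were treated postemergence; compounds were formulated in non-phytotoxic solvent with surfactant. After 13–15 days in greenhouse, response was visually rated against controls, 0 (no effect) to 100 (complete control).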

[2] = test system: large crabgrass (Digitaria sanguinalis)
Summary of the method: as §1

[3] = test system: velvetleaf (Abutilon theophrasti)
Summary of the method: as §1

[4] = test system: kochia (Kochia scoparia); details: Postemergence; for Plant response rating, Kochia: scale 0 (no effect) to 100 (complete control)
Summary of the method: as §1

[5] = test system: goosegrass (Eleusine indica)
Summary of the method: as §1

[6] = test system: cocklebur (Xanthium strumarium)
Summary of the method: as §1

[7] = test system: blackgrass (Alopecurus myosuroides)
Summary of the method: as §1

[8] = test system: johnsongrass (Sorghum halepense)
Summary of the method: as §1

[9] = test system: morningglory (Ipomoea coccinea)
Summary of the method: as §1

[10] = test system: corn (Zea mays)
Summary of the method: as §1

[11] = test system: Italian ryegrass (Lolium multiflorum)
Summary of the method: as §1

[12] = test system: giant foxtail (Setaria faberii)
Summary of the method: as §1

[13] = test system: green foxtail (Setaria viridis)
Summary of the method: as §1

[14] = test system: soybean (Glycine max)
Summary of the method: as §1

[15] = 250 g ai/ha, Preemergence, 0 to 100 scale
[16] = Postemergence, 62 g ai/ha, scale 0 (no effect) to 100 (complete control), 13 to 15 days
[17] = Postemergence, 125 g ai/ha, visual rating after 13 to 15 days, scale 0 (no effect) to 100 (complete control)
[18] = Preemergence, 31 g ai/ha, scale 0 to 100 (0 no effect, 100 complete control)
[19] = Preemergence, 62 g ai/ha, scale 0 to 100 (0 no effect, 100 complete control)
[20] = Preemergence, 125 g ai/ha, 0 to 100 scale
[21] = Postemergence, 31 g ai/ha, scale 0 to 100 (0 no effect, 100 complete control)
[22] = Postemergence, 250 g ai/ha, scale 0 to 100

Cc1cc(C)cc(-n2c(-c3ccccc3)ncc(C(=O)C3=C(O)CCCC3=O)c2=O)c1 [Compound 33]
100: Plant response rating, Ragweed [1, 15] | Ragweed plant response rating [1, 20] | Plant response rating, Crabgrass, Large [2, 15] | Crabgrass, Large plant response rating [2, 20] | Plant response rating, Velvetleaf [3, 15] | Velvetleaf plant response rating [3, 20] | Plant response rating, Foxtail, Green [13, 15] | Foxtail, Green plant response rating [13, 20]
98: Plant response rating, Ragweed [1, 17] | Crabgrass, Large plant response rating [2, 22] | Plant response rating, Crabgrass, Large [2, 19] | Plant response rating, Velvetleaf [3, 17] | Kochia plant response rating ([4]; 250 g ai/ha, scale 0 to 100) | Plant response rating, Goosegrass [5, 15] | Plant response rating, Foxtail, Giant [12, 15] | Plant response rating, Soybean [14, 16] | Plant response rating, Soybean [14, 17]
15: Plant response rating, Blackgrass [7, 16] | Plant response rating, Morningglory [9, 19] | Corn plant response rating [10, 22]
20: Plant response rating, Johnsongrass [8, 15]
60: Plant response rating, Morningglory [9, 16] | Plant response rating, Soybean [14, 18] | Plant response rating, Soybean [14, 19]
35: Plant response rating, Johnsongrass [8, 16] | Plant response rating, Johnsongrass [8, 17]
10: Plant response rating, Blackgrass [7, 21] | Blackgrass plant response rating [7, 20] | Plant response rating, Corn [10, 16] | Plant response rating, Corn [10, 17] | Plant response rating, Ryegrass, Italian [11, 16] | Plant response rating, Foxtail, Giant [12, 18]
75: Plant response rating, Crabgrass, Large [2, 21] | Plant response rating, Goosegrass [5, 16] | Plant response rating, Foxtail, Giant [12, 21] | Plant response rating, Soybean [14, 15]
30: Plant response rating, Blackgrass [7, 15] | Plant response rating, Blackgrass [7, 17] | Blackgrass plant response rating [7, 22]
80: Plant response rating, Ragweed [1, 18] | Plant response rating, Velvetleaf [3, 18] | Plant response rating, Kochia ([4]; 62 g ai/ha, 13 to 15 days) | Plant response rating, Goosegrass [5, 18] | Plant response rating, Cocklebur [6, 19] | Plant response rating, Morningglory [9, 17] | Plant response rating, Foxtail, Giant [12, 16]
25: Plant response rating, Cocklebur [6, 18]
50: Plant response rating, Foxtail, Green [13, 21]
40: Johnsongrass plant response rating [8, 22] | Plant response rating, Ryegrass, Italian [11, 17]
70: Morningglory plant response rating [9, 20]
65: Soybean plant response rating [14, 20]
0: Plant response rating, Blackgrass [7, 18] | Plant response rating, Blackgrass [7, 19] | Plant response rating, Johnsongrass [8, 18] | Plant response rating, Johnsongrass [8, 19] | Johnsongrass plant response rating [8, 20] | Plant response rating, Morningglory [9, 18] | Plant response rating, Corn [10, 15] | Plant response rating, Corn [10, 21] | Plant response rating, Corn [10, 18] | Plant response rating, Corn [10, 19] | Corn plant response rating [10, 20] | Plant response rating, Ryegrass, Italian [11, 18] | Plant response rating, Ryegrass, Italian [11, 19] | Plant response rating, Foxtail, Green [13, 18]
5: Plant response rating, Ryegrass, Italian [11, 15] | Ryegrass, Italian plant response rating [11, 20]
45: Plant response rating, Foxtail, Giant [12, 19] | Plant response rating, Foxtail, Green [13, 19]
85: Plant response rating, Ragweed [1, 19] | Plant response rating, Crabgrass, Large [2, 16] | Plant response rating, Crabgrass, Large [2, 18] | Plant response rating, Goosegrass [5, 17] | Goosegrass plant response rating [5, 22] | Plant response rating, Cocklebur [6, 21] | Cocklebur plant response rating [6, 20] | Plant response rating, Foxtail, Giant [12, 17] | Plant response rating, Foxtail, Green [13, 16]
90: Plant response rating, Crabgrass, Large [2, 17] | Plant response rating, Velvetleaf [3, 16] | Plant response rating, Velvetleaf [3, 19] | Goosegrass plant response rating [5, 20] | Plant response rating, Cocklebur [6, 15] | Plant response rating, Cocklebur [6, 16] | Plant response rating, Morningglory [9, 15] | Plant response rating, Foxtail, Green [13, 17] | Foxtail, Green plant response rating [13, 22]
95: Plant response rating, Ragweed [1, 16] | Plant response rating, Kochia ([4]; 125 g ai/ha, visual rating after 13 to 15 days) | Plant response rating, Cocklebur [6, 17] | Cocklebur plant response rating [6, 22] | Foxtail, Giant plant response rating [12, 22] | Foxtail, Giant plant response rating [12, 20]
